A value given as a limit tells only on which side of the number the result lay.

The target of one assay is T1, EGFR (L858R T790M C797S) (Homo sapiens, UniProt P00533, C797S/L858R/T790M).
T1 construct: purchased SignalChem E10-122VG
Kind of assay: Biochemical EGFR inhibition assay (Caliper mobility shift), EGFR LRTMCS mutant. The conditions noted are these: inhibitory activity against EGFR LRTMCS mutant; apparent IC50; read-out: Ext Enz LRTMCS. In a few lines:
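Kinase reactions proceed at 25° C. to 10%–20% conversion of total peptide, are terminated with 35 mM EDTA, and the phosphopeptide is resolved from substrate by electrophoretic mobility shift. Apparent IC50 values come from plotting percent activity against log compound concentration.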

For assay [1], the system named is phosphorylation of EGFR (Tyr1068) in NCI-H1975 cell line that harbors the EGFR L858R T790M mutations. Kind of assay: NCI-H1975 pEGFR AlphaLISA assay. The format is cell-based. The conditions noted are these: Homo sapiens, NCI-H1975, inhibition of phosphorylation of mutant EGFR in NCI-H1975 cells; 4-5 hours incubation; read-out: Ext pEGFR H1975. Summed up:
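Phospho-EGFR Tyr1068 AlphaLISA readout: lysates taken from compound-treated H1975 cells (L858R T790M EGFR) after a 4-5 h exposure at 37 °C. Cells had adhered overnight beforehand. IC50 derived by plotting % pEGFR inhibition against log compound concentration.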
A general note: Bead proximity is the source of the signal in Alpha formats.

T1 sequence (P00533 25-1210 T790M/C797S/L858R): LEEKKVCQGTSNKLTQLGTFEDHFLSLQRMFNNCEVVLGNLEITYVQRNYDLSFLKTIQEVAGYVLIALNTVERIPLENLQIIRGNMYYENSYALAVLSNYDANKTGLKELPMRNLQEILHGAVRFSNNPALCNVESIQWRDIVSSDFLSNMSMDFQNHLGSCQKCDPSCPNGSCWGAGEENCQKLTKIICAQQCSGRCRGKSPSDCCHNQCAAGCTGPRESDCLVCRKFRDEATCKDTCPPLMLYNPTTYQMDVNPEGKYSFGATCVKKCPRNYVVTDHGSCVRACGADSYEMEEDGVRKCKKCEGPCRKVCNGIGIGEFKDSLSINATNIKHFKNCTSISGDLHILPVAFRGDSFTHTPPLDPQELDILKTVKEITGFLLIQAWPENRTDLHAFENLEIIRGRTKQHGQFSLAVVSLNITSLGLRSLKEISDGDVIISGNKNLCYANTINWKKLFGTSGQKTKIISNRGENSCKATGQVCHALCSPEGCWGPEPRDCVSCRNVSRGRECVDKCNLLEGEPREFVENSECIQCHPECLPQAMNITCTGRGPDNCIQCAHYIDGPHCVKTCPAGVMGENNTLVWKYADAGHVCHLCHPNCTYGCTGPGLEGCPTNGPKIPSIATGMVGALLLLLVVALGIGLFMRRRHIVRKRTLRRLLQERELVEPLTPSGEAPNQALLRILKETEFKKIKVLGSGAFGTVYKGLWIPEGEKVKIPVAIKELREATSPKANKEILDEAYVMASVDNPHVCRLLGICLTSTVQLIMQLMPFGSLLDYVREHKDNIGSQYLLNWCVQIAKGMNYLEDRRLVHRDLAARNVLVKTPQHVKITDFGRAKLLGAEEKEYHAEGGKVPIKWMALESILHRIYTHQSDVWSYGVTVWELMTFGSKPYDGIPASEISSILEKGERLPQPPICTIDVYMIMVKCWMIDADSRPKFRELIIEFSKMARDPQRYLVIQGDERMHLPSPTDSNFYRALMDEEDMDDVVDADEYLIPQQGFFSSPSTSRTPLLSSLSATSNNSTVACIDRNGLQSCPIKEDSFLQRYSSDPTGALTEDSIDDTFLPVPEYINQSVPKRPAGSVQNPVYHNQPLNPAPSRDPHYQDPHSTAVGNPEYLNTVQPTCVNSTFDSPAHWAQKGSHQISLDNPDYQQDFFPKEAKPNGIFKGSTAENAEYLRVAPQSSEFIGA

Consider `CC(C)c1ccc(N2CC(CS(C)(=O)=O)C2)c2cnc(Nc3ccnc(N4CC[C@](C)(O)[C@@](C)(F)C4)n3)cc12` (single isomer, unassigned) [Compound 114, (3S,4S)-3-fluoro-1-[4-({8-[3-(methanesulfonylmethyl)azetidin-1-yl]-5-(propan-2-yl)isoquinolin-3-yl}amino)pyrimidin-2-yl]-3,4-dimethylpiperidin-4-ol or (3R,4R)-3-fluoro-1-[4-({8-[3-(methanesulfonylmethyl)azetidin-1-yl]-5-(propan-2-yl)isoquinolin-3-yl}amino)pyrimidin-2-yl]-3,4-dimethylpiperidin-4-ol], for which the IC50 at EGFR (L858R T790M C797S) fell in the range of 0.0301 to 0.1 µM; in assay [1], 0.0301 to 0.05 µM.
In the case of `CC(C)c1ccc(N2CC(CS(C)(=O)=O)C2)c2cnc(Nc3ccnc(N4CC5COC(C5)C4)n3)cc12` (racemic) [Compound 13, (rac)-8-[3-(methanesulfonylmethyl)azetidin-1-yl]-N-{2-[6-oxa-3-azabicyclo[3.2.1]octan-3-yl]pyrimidin-4-yl}-5-(propan-2-yl)isoquinolin-3-amine], the IC50 was not above 0.015 µM on EGFR (L858R T790M C797S) and 0.0301 to 0.05 µM in assay [1].
Turning to `CC(C)c1ccc(N2CC(CS(C)(=O)=O)C2)c2cnc(Nc3ccnc(N4CC[C@@H](O)[C@@H](F)C4)n3)cc12` [Compound 28, (3S,4R)-3-fluoro-1-[4-({8-[3-(methanesulfonylmethyl)azetidin-1-yl]-5-(propan-2-yl)isoquinolin-3-yl}amino)pyrimidin-2-yl]piperidin-4-ol], the IC50 was not above 0.015 µM at EGFR (L858R T790M C797S) and not above 0.01 µM in assay [1].
Consider `[2H]C([2H])([2H])O[C@@H]1CCN(c2nccc(Nc3cc4c(C5CC5)ccc(N5C[C@H](CS(C)(=O)=O)[C@H]5C)c4cn3)n2)C[C@@H]1F` [Compound 315, 5-cyclopropyl-N-(2-((3S,4R)-3-fluoro-4-(^2H3)piperidin-1-yl)pyrimidin-4-yl)-8-((2R,3S)-2-methyl-3-((methylsulfonyl)methyl)azetidin-1-yl)isoquinolin-3-amine], for which the values for the IC50 (at EGFR (L858R T790M C797S); in assay [1]) were not above 0.015 µM and not above 0.01 µM, respectively.
As for `CO[C@H]1CCN(c2nccc(Nc3cc4cccc(N5C[C@H](CS(C)(=O)=O)[C@H]5C)c4cn3)n2)C[C@H]1F` [Compound 4, N-{2-[(3R,4S)-3-fluoro-4-methoxypiperidin-1-yl]pyrimidin-4-yl}-8-[(2R,3S)-3-(methanesulfonylmethyl)-2-methylazetidin-1-yl]isoquinolin-3-amine], the IC50 on EGFR (L858R T790M C797S) is not above 0.015 µM; in assay [1] it was 0.0301 to 0.05 µM.
Take `CO[C@H]1CCN(c2nccc(Nc3cc4c(C(C)C)ncc(N5CC(CS(C)(=O)=O)C5)c4cn3)n2)C[C@H]1F` [Compound 73, N-{2-[(3R,4S)-3-fluoro-4-methoxypiperidin-1-yl]pyrimidin-4-yl}-8-[3-(methanesulfonylmethyl)azetidin-1-yl]-5-(propan-2-yl)-2,6-naphthyridin-3-amine]: the values for the IC50 (at EGFR (L858R T790M C797S); in assay [1]) were not above 0.015 µM and not above 0.01 µM, respectively.
The like results for `CC(C)c1ccc(N2CC(CS(C)(=O)=O)C2)c2cnc(Nc3ccnc(N4C[C@H]5COC[C@H]5C4)n3)cc12` [Compound 10, N-{2-[(3aR,6aS)-hexahydro-1H-furo[3,4-c]pyrrol-5-yl]pyrimidin-4-yl}-8-[3-(methanesulfonylmethyl)azetidin-1-yl]-5-(propan-2-yl)isoquinolin-3-amine] were, in that order, not above 0.015 µM and 0.0301 to 0.05 µM.
The like results for `CCS(=O)(=O)C[C@H]1CN(c2ccc(C(C)C)c3cc(Nc4cnnc(N5CC[C@@H](OC)[C@@H](F)C5)n4)ncc23)[C@@H]1C` [Compound 288, 8-[(2R,3S)-3-[(ethanesulfonyl)methyl]-2-methylazetidin-1-yl]-N-{3-[(3S,4R)-3-fluoro-4-methoxypiperidin-1-yl]-1,2,4-triazin-5-yl}-5-(propan-2-yl)isoquinolin-3-amine] were, in that order, not above 0.015 µM and not above 0.01 µM.
Consider `CC(C)c1ccc(N2CC(CS(C)(=O)=O)C2)c2cnc(Nc3ccnc(N4CC[C@](F)([C@@H](C)O)C4)n3)cc12` (single isomer, unassigned) [Compound 58, (1R)-1-[(3R)-3-fluoro-1-[4-({8-[3-(methanesulfonylmethyl)azetidin-1-yl]-5-(propan-2-yl)isoquinolin-3-yl}amino)pyrimidin-2-yl]pyrrolidin-3-yl]ethan-1-ol or (1S)-1-[(3S)-3-fluoro-1-[4-({8-[3-(methanesulfonylmethyl)azetidin-1-yl]-5-(propan-2-yl)isoquinolin-3-yl}amino)pyrimidin-2-yl]pyrrolidin-3-yl]ethan-1-ol], for which the IC50 at EGFR (L858R T790M C797S) is 0.0151 to 0.02 µM; in assay [1], 0.0201 to 0.03 µM.
Turning to `CC(C)c1ccc(N2C[C@H](CS(C)(=O)=O)[C@H]2C)c2cnc(Nc3cnnc(N4CC[C@](C)(O)[C@H](F)C4)n3)cc12` (single isomer, unassigned) [Compound 141], the results for the IC50 (on EGFR (L858R T790M C797S); in assay [1]) were not above 0.015 µM and 0.0101 to 0.02 µM, respectively.
In the case of `CCS(=O)(=O)C[C@H]1CN(c2ncc(C(C)C)c3cc(Nc4ccnc(N5CC[C@H](OC)[C@@H](O)C5)n4)ncc23)[C@@H]1C` (single isomer, unassigned) [Compound 179], the values for the IC50 (on EGFR (L858R T790M C797S); in assay [1]) were not above 0.015 µM and not above 0.01 µM, respectively.
As for `CCS(=O)(=O)C[C@H]1CN(c2ncc(C(C)C)c3cc(Nc4ccnc(N5CC[C@@H](OCCO)[C@@H](F)C5)n4)ncc23)[C@@H]1C` [Compound 249, 2-{[(3S,4R)-1-[4-({8-[(2R,3S)-3-[(ethanesulfonyl)methyl]-2-methylazetidin-1-yl]-5-(propan-2-yl)-2,7-naphthyridin-3-yl}amino)pyrimidin-2-yl]-3-fluoropiperidin-4-yl]oxy}ethan-1-ol], the IC50 at EGFR (L858R T790M C797S) is not above 0.015 µM; in assay [1] it was not above 0.01 µM.
For `[2H]C([2H])([2H])O[C@@H]1CCN(c2nccc(Nc3cc4c(C(C)C)ncc(N5C[C@H](CS(C)(=O)=O)[C@H]5C)c4cn3)n2)C[C@@H]1F` (single isomer, unassigned) [Compound 161, N-{2-[(3S,4R)-3-fluoro-4-(^2H3)methoxypiperidin-1-yl]pyrimidin-4-yl}-8-[(2R,3S)-3-(methanesulfonylmethyl)-2-methylazetidin-1-yl]-5-(propan-2-yl)-2,6-naphthyridin-3-amine or N-{2-[(3R,4S)-3-fluoro-4-(^2H3)methoxypiperidin-1-yl]pyrimidin-4-yl}-8-[(2R,3S)-3-(methanesulrfonylmethyl)-2-methylazetidin-1-yl]-5-(propan-2-yl)-2,6-naphthyridin-3-amine], the IC50 on EGFR (L858R T790M C797S) is not above 0.015 µM; in assay [1], not above 0.01 µM.
Turning to `CCS(=O)(=O)C[C@H]1CN(c2ccc(F)c3cc(Nc4ccnc(N5CC[C@@H](OC)[C@@H](F)C5)n4)ncc23)[C@@H]1C` [Compound 85, 8-[(2R,3S)-3-[(ethanesulfonyl)methyl]-2-methylazetidin-1-yl]-5-fluoro-N-{2-[(3S,4R)-3-fluoro-4-methoxypiperidin-1-yl]pyrimidin-4-yl}isoquinolin-3-amine], the figures for the IC50 (at EGFR (L858R T790M C797S); in assay [1]) were not above 0.015 µM and 0.0101 to 0.02 µM, respectively.
On to `CC(C)c1ccc(N2C[C@H](CS(C)(=O)=O)[C@H]2C)c2cnc(Nc3ccnc(N4CC[C@@H](F)[C@@H](O)C4)n3)cc12` (single isomer, unassigned) [Compound 269, (3S,4R)-4-fluoro-1-[4-({8-[(2R,3S)-3-(methanesulfonylmethyl)-2-methylazetidin-1-yl]-5-(propan-2-yl)isoquinolin-3-yl}amino)pyrimidin-2-yl]piperidin-3-ol or (3R,4S)-4-fluoro-1-[4-({8-[(2R,3S)-3-(methanesulfonylmethyl)-2-methylazetidin-1-yl]-5-(propan-2-yl)isoquinolin-3-yl}amino)pyrimidin-2-yl]piperidin-3-ol], for which the IC50 at EGFR (L858R T790M C797S) is not above 0.015 µM; in assay [1], not above 0.01 µM.
Regarding `CC(C)c1ccc(N2C[C@H](CS(C)(=O)=O)[C@H]2C)c2cnc(Nc3ccnc(N4CC[C@@H](O)[C@@H](F)C4)n3)cc12` [Compound 62, (3S,4R)-3-fluoro-1-(4-((5-isopropyl-8-((2R,3S)-2-methyl-3-((methylsulfonyl)methyl)azetidin-1-yl)isoquinolin-3-yl)amino)pyrimidin-2-yl)piperidin-4-ol], the results for the IC50 (on EGFR (L858R T790M C797S); in assay [1]) were not above 0.015 µM and not above 0.01 µM, respectively.
For the compound `CO[C@H]1CN(c2nccc(Nc3cc4c(C(C)C)ccc(N5C[C@H](CS(C)(=O)=O)[C@H]5C)c4cn3)n2)CC[C@@H]1O` (single isomer, unassigned) [Compound 98, (3R,4R)-1-[4-({8-[(2R,3S)-3-(methanesulfonylmethyl)-2-methylazetidin-1-yl]-5-(propan-2-yl)isoquinolin-3-yl}amino)pyrimidin-2-yl]-3-methoxypiperidin-4-ol or (3S,4S)-1-[4-({8-[(2R,3S)-3-(methanesulfonylmethyl)-2-methylazetidin-1-yl]-5-(propan-2-yl)isoquinolin-3-yl}amino)pyrimidin-2-yl]-3-methoxypiperidin-4-ol], the figures for the IC50 (on EGFR (L858R T790M C797S); in assay [1]) were not above 0.015 µM and 0.0101 to 0.02 µM, respectively.
Take `CCS(=O)(=O)CC1CN(c2ccc(C(C)C)c3cc(Nc4ccnc(N5CC[C@@H](OC)[C@@H](O)C5)n4)ncc23)C1` (single isomer, unassigned) [Compound 91, (3S,4R)-1-{4-[(8-{3-[(ethanesulfonyl)methyl]azetidin-1-yl}-5-(propan-2-yl)isoquinolin-3-yl)amino]pyrimidin-2-yl}-4-methoxypiperidin-3-ol or (3R,4S)-1-{4-[(8-{3-[(ethanesulfonyl)methyl]azetidin-1-yl}-5-(propan-2-yl)isoquinolin-3-yl)amino]pyrimidin-2-yl}-4-methoxypiperidin-3-ol]: the IC50 at EGFR (L858R T790M C797S) was not above 0.015 µM; in assay [1], not above 0.01 µM.

For the origin of these results see US12172983B2, “EGFR inhibitors” (Blueprint Medicines Corporation, priority 2019, dated 2024).
